Where a name gives a salt, the structure may show the parent alone.
Key:
[1] = tested on: dog; assay: Efficacy: maximum contraction in the dog compared with noradrenalin; conditions: percentage of contraction compared with noradrenalin
Method: (§1) The efficacy and selectivity of the compounds is determined as follows:
(§2) The maximum contraction in the dog and the activity on the human urethra are given as percentages of contraction compared with noradrenalin. Selectivity in the dog: percentage contraction on the femoral artery in the dog at 10^−5 M—percentage contraction on the carotid artery in the dog at 10^−5 M.

[2] = biological target: CYP2D6 (Homo sapiens, UniProt P10635); assay: Metabolism: breakdown of test substance by enzyme CYP2D6; type: in vitro ADME
Method: To determine the metabolism, the enzyme CYP2D6 was allowed to act on the test substances. After 30 minutes, a check was made to see how much of the test substance put in had been broken down by the enzyme.

[3] = tested on: femoral artery in the dog / carotid artery in the dog; assay: Selectivity in the dog: contraction on femoral artery vs carotid artery; conditions: percentage contraction on femoral artery at 10^-5 M — percentage contraction on carotid artery at 10^-5 M
Method: as §1, §2

[4] = tested on: HLM; assay: Metabolism: breakdown of test substance by HLM; type: in vitro ADME
Method: The rate of breakdown under the effect of the enzyme HLM/60 minutes is tested analogously.

[5] = tested on: Human Urethra; assay: Efficacy: activity on the human urethra, contraction compared with noradrenalin; conditions: percentage of contraction compared with noradrenalin
Method: as §1, §2

[6] = Bioavailability after oral vs intravenous administration to fasted male rats, plasma HPLC; type: in vivo; conditions: rat, oral compared with intravenous, pooled plasma by HPLC
Method: In order to determine bioavailability, the test substances were administered orally to a group of 8 male rats which had been fasted. As a comparison, the test substances were administered intravenously to animals in an identical second group. 1 ml blood samples were taken from the animals of both groups at specified times after administration (10 minutes, 30 minutes, 1 hour, 2 hours, and 4 hours, and additionally after 6 hours in the case of the animals treated by oral route). The blood samples taken in each group were mixed together (8 ml). After further working up, the content of the test substances in the blood for the particular time was determined from the plasma by HPLC (High Performance Liquid Chromatography) using standard methods and compared for the two groups.

Chain of CYP2D6 (P10635 whole entry): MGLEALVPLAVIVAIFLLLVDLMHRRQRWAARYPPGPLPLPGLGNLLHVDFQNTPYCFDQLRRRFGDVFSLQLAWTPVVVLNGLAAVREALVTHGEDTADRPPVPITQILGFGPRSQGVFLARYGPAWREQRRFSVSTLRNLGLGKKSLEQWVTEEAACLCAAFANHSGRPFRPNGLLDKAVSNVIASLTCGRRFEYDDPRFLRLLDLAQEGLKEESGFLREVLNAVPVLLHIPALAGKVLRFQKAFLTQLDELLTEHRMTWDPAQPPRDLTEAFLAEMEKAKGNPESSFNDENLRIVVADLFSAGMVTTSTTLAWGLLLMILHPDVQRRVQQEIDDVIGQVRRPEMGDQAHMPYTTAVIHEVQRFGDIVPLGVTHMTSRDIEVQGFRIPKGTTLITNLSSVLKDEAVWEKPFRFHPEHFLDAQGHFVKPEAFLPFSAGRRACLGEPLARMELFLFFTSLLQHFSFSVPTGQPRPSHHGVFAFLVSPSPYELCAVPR

SMILES | melting point | Activity in the Dog (maximum contraction) [1] | % Breakdown of Substrate after 30 minutes' Incubation with CYP2D6 [2] | Selectivity in the Dog [3] | Breakdown of Substrate after 60 minutes' Incubation with HLM [4] | Activity on Human Urethra [5] | bioavailability [6]
CN(C)c1ccc(Br)c(NC2=NCCN2)c1Cl | 142 to 145 °C | – | – | – | – | – | –
Cc1c(N(C)C)cc(Cl)c(Br)c1NC1=NCCN1 (as salt: hydrochloride) [Compound 1, 2′-Bromo-3′-chloro-5′-dimethylamino-6′-methylphen-1′-yl-2-iminoimidazolidine] | 239 to 240 °C | – | – | – | – | – | –
Cc1c(N(C)C)cc(Cl)c(Br)c1NC1=NCCN1 [Compound 1, 2′-Bromo-3′-chloro-5′-dimethylamino-6′-methylphen-1′-yl-2-iminoimidazolidine] | – | 109% | 40.5% | 0.92 | 32.1 | 100% | –
Cc1c(NC2=NCCN2)cc(Br)cc1N(C)C [Compound 3, 3′-bromo-5′-dimethylamino-6′-methylphen-1′-yl-2-iminoimidazolidine] | 140 to 143 °C | 87% | 33.9% | 0.76 | 17.0 | 72% | –
Cc1c(NC2=NCCN2)cc(Cl)cc1N(C)C [Compound 4, 3′-chloro-5′-dimethylamino-6′-methylphen-1′-yl-2-iminoimidazolidine] | – | 116% | 36.5% | 0.99 | 17.1 | 137% | 11%
Cc1c(N(C)C)cc(Br)c(Br)c1NC1=NCCN1 [Compound 5, 2′-3′-dibromo-5′-dimethylamino-6′-methylphen-1′-yl-2-iminoimidazolidine] | – | 89% | 22.2% | 0.71 | 22.0 | 113% | 0.8%
CN(C)c1cccc(NC2=NCCN2)c1Cl [Compound 6, 2′-chloro-3′-dimethylaminophen-1′-yl-2-iminoimidazolidine] | 146 to 148 °C | – | – | – | 7.4 | – | –
CN(C)c1c(Br)ccc(NC2=NCCN2)c1Cl [Compound 7, 4′-bromo-2′-chloro-3′-dimethylaminophen-1′-yl-2-iminoimidazolidine] | 150 to 155 °C | – | 46.4% | – | 55.8 | – | –

Source: US6602897B2, “m-Amino-phenylimino-imidazolidine derivatives for treating urinary incontinence” (Boehringer Ingelheim Pharma KG, priority 2000, dated 2003)
